Measured values reported in PubChem BioAssay AID588620 (NMMLSC, 2011).
Where “and” joins values, the source holds several entries; their conditions need not be identical. Equal values may be shown once. Calls of active or inactive are those of the source.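 The calls were made as follows: active = fitted half-maximal concentration below 30 µM for cell fluorescence in pump-free yeast, so likely self-fluorescent; inactive = the rest.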

Test: concentration-dependent intrinsic compound fluorescence, S. cerevisiae AD/pABC3, flow cytometry, Cherry Pick1 hits, artefact control for antifungal efflux pump inhibitor project, dose response (AID 588620);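 also: red emission of unstained cells excited at 488 nm measured in PE-Texas Red channel; cell median fluorescence as percent of DMSO wells so 100% equals vehicle baseline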
Settings: S. cerevisiae AD/pABC3 compound autofluorescence, flow cytometry; at 33.1 µM (top of the series)

SMILES	fluorescence response, % of control
Cc1ccc(-n2c(-c3ccc(Br)cc3)c[n+]3c2CCc2ccc4cccnc4c2-3)cc1	92.4% (inactive)
CC(C)(C)c1ccc(-n2ncc3c2CCCC3NC(=O)c2cnccn2)cc1 (stereo unspecified)	90.8% (inactive)
COc1ccc(/C=c2\s/c(=C/C(=O)c3ccc(C)cc3)[nH]c2=O)c(OC)c1	98.7% (inactive)
COc1ccc(/C=C2\SC(c3ccc(C)cc3)=NC2=O)cc1OC	289% (inactive)
Cc1ccc(C)c(Cn2nnc3c(=O)[nH]c(C4CCN(S(=O)(=O)c5ccc(S(=O)(=O)N(C)C)cc5)CC4)nc32)c1	119% (inactive)
COc1cc(/C=C(\C#N)c2nc3ccccc3n2C)cc(OC)c1O	333% (inactive)
O=C1C(Cc2ccccc2)Nc2ncnc(N3CCN(c4ccccc4)CC3)c2N1Cc1ccc(Cl)cc1 (stereo unspecified)	97.1% (inactive)
Cc1ccc(C(=O)N2CCC3(CC2)Oc2ccc(Cl)cc2C(=O)C32CC(c3ccccc3)=NO2)s1 (stereo unspecified)	105% (inactive)
Cc1ccccc1S(=O)(=O)Nc1nc2ccccc2nc1N1CCc2ccccc2C1	103% (inactive)
COc1ccc(CCC(=O)NNC(=O)Cn2nc(C)cc2C)cc1	100% (inactive)
CN(C(=O)c1ccc(NC(=O)c2ccco2)cc1)c1ccccc1	105% (inactive)
C[C@@]12C(=O)Nc3ccc(Cl)cc3C(=O)N1[C@H]1c3cc(Cl)ccc3OC[C@@H]1[C@@H]2c1ccccc1	103% (inactive)
COc1ccc(CNC(=O)C(=O)NCC2OCCN2S(=O)(=O)c2ccc(OC)c(OC)c2)cc1 (stereo unspecified)	99.3% (inactive)
O=C(NC1CCCCC1)c1cc2ccccc2cc1O	78.8% (inactive)
O=S(=O)(NCCc1cn2ccccc2n1)c1ccc(F)c(C(F)(F)F)c1	118% (inactive)
O=c1[nH]c(C2CCN(S(=O)(=O)c3ccc4c(c3)OCCO4)CC2)nc2c1nnn2Cc1ccc(F)cc1	94.5% (inactive)
CCCCCc1cc(=O)oc2c(C(CCN3CCCC(C)C3)c3ccc(N(C)C)cc3)c(OC)cc(OC)c12 (stereo unspecified)	94.5% (inactive)
COc1ccc(/C=N/N=C2/NC(=O)C(CC(=O)O)S2)cc1OCc1ccc(Cl)cc1 (stereo unspecified)	91.7% (inactive)
CCOc1ccccc1-c1nc(C(N)=O)c2[nH]c(=O)n(-c3cccc(C)c3)c2n1	80.3% (inactive)
Cc1ccc(C)c(C(=O)COC(=O)c2ccc(C)c(S(=O)(=O)N3CCOCC3)c2)c1	93.5% (inactive)
CCOC(=O)C(NC(=O)CC)(Nc1ccccc1)C(F)(F)F (stereo unspecified)	103% (inactive)

SMILES	fluorescence response, % of control
CSCCC(NC(=O)c1ccccc1Cl)C(=O)N1CCN(C(c2ccccc2)c2ccccc2)CC1 (stereo unspecified)	80.9% (inactive)
COc1ccc(-c2sc3cc(OC)ccc3c2-c2ccc(OCCN3CCOCC3)cc2)cc1	153% (inactive)
Cc1ccc(CSC2=Nc3ccccc3C3=NC(CC(=O)NCc4ccco4)C(=O)N23)cc1 (stereo unspecified)	89% (inactive)
COc1cccc(C(=O)NC2CC(C)(C)Cc3c2cnn3-c2cccc(F)c2)c1OC (stereo unspecified)	121% (inactive)
COc1cc2c(cc1NC(=O)CSc1nnc(Cc3cccs3)n1Cc1ccco1)oc1ccccc12	85.8% (inactive)
O=C1C(Cl)=C(Nc2ccc3cn[nH]c3c2)C(=O)c2ccccc21	145% (inactive)
CCCCOc1ccc(NC2=NC3(CCCC3)N=C(N)N2)cc1	73.8% (inactive)
COc1cccc(-c2sc3ccc(OC)cc3c2-c2ccc(OCCN3CCCCC3)cc2)c1	102% (inactive)
CCN(CC)C(=O)CSc1nnc(-c2ccncc2)n1N	127% (inactive)
CCSc1cc(N2CCOCC2)nc(-c2ccccc2)n1	89.7% (inactive)
Cc1ccc(-c2cc(C(=O)Nc3ccc(S(=O)(=O)Nc4ncccn4)cc3)c3ccccc3n2)cc1	96.3% (inactive)
S=C(Nc1ccc(Cl)cc1Cl)N1CCCCC1	135% (inactive)
COc1cc(/C=C2/CC/C(=C/c3ccc(O)c(OC)c3)C2=O)ccc1O	347% (inactive)
COc1ccc(CC(=O)Nc2ccc(NC(=O)c3ccc(Br)cc3)cc2)cc1OC	134% (inactive)
CC(C)(C)C(=O)CSc1nc2c(c(-c3cccs3)c1C#N)CCC2	92.4% (inactive)
O=C(NC(=Nc1nc2ccccc2o1)NC(=O)c1ccccc1)c1ccccc1	102% (inactive)
O=C(C1CCC1)N1CCc2cc(S(=O)(=O)Nc3ccc4c(c3)OCCO4)ccc21	116% (inactive)
Cc1c2ccncc2c(C)c2c1[nH]c1ccccc12	132% (inactive) and 1000% (inactive)
CCN(CC)c1ccc(/C=C/c2cc(-c3ccccc3)c3ccccc3n2)cc1	406% (inactive)
CCCOc1ccc(-c2nc(N3CCN(C)CC3)c3ccccc3n2)cc1	95.7% (inactive)
O=[N+]([O-])c1cc(/C=N\Nc2ccccn2)ccc1Cl	96.1% (inactive)

SMILES	fluorescence response, % of control
COc1ccc(-c2nc(Cn3c(SCc4ccc(C)cc4)nc4ccncc43)c(C)o2)cc1OC	87.6% (inactive)
COc1ccc2nc(NC(=O)c3ccoc3C)sc2c1	117% (inactive)
CCSc1cc(N2CCCC2)nc(-c2ccc(C)cc2)n1	101% (inactive)
Cc1cc(C(=O)COC(=O)c2ccc[nH]c2=O)c(C)n1-c1ccc(F)cc1	102% (inactive)
O=C1C(Cc2ccccc2)Nc2ncnc(N3CCN(c4ccccc4)CC3)c2N1Cc1ccc(Br)cc1 (stereo unspecified)	116% (inactive)
O=C1C(Cc2cccc([N+](=O)[O-])c2)SC(=Nc2ccccc2)N1c1ccccc1 (stereo unspecified)	116% (inactive)
Cc1ccc(OCc2cc(C(=O)NCC(C)(C)N3CCOCC3)no2)cc1C	116% (inactive)
CN(C)CCN(C(=O)c1ccc(S(=O)(=O)N2CCc3ccccc32)cc1)c1nc2ccc(F)cc2s1	196% (inactive)
COc1ccc2c(c1)OC[C@H]1[C@H]2N2C(=O)c3ccc(C)cc3NC(=O)[C@@]2(C)[C@H]1c1ccccc1	106% (inactive)
COc1ccc(-c2nc3ccccc3c(=O)n2CCOc2ccccc2C)cc1	103% (inactive)
OCCN1CCN(CC/C=C2/c3ccccc3Sc3ccc(C(F)(F)F)cc32)CC1	332% (inactive)
CC(C)C(=O)N1CCC2(CC1)Oc1ccc(Cl)cc1C(=O)C21CC(c2ccc(Cl)cc2)=NO1 (stereo unspecified)	111% (inactive)
COc1ccc(/C=C/C(=O)Nc2cccc(S(=O)(=O)N3CCCC3)c2)cc1OC	103% (inactive)
COc1ccc(-c2sc3ccccc3c2-c2ccc(OCCN3CCOCC3)cc2)cc1	111% (inactive)
CCC1Nc2ncnc(N3CCN(c4ccccn4)CC3)c2N(Cc2ccc(Br)cc2)C1=O (stereo unspecified)	85.4% (inactive)
Cc1cccc(C)c1-n1c(SCC(=O)N2CC(=O)Nc3ccccc32)nc2ccccc2c1=O	118% (inactive)
CC1(C)CC2(CC(c3cccs3)c3cc(Cl)c(O)cc3O2)NC(=S)N1 (stereo unspecified)	113% (inactive)
Clc1ccc(Cn2nc(-c3ccccc3)nc2-c2ccccc2)cc1	108% (inactive)
Cc1ccsc1-c1nc(C(N)=O)c2[nH]c(=O)n(-c3ccc(Cl)cc3)c2n1	102% (inactive)
Cc1cc(O)c(C(C)C)cc1C1(c2cc(C(C)C)c(O)cc2C)OC(=O)c2ccccc21	99.8% (inactive)
COc1ccc(C(=O)NC2CC(C)(C)Cc3c2cnn3-c2ccccc2)c(OC)c1 (stereo unspecified)	115% (inactive)

SMILES	fluorescence response, % of control
COc1cccc(-c2sc3ccc(OC)cc3c2-c2ccc(OCCN(C)C)cc2)c1	126% (inactive)
Cc1ccc2nc(-c3ccccc3)cc(C(=O)N3CCN(S(=O)(=O)c4c(C)noc4C)CC3)c2c1	109% (inactive)
COc1ccc(C(=O)NC2CCCc3c2cnn3-c2cccc(C)c2C)c(OC)n1 (stereo unspecified)	75.9% (inactive)
COc1ccc2[nH]c3c(C)c4cc[n+](C)cc4c(C)c3c2c1	153% (inactive)
O=c1[nH]c(C2CCN(S(=O)(=O)c3ccc4c(c3)OCCO4)CC2)nc2c1nnn2Cc1cccc(F)c1	172% (inactive)
NC1=NC[C@H](Cc2ccccc2)N1CCCCC1CCCCC1	127% (inactive)
Cc1cc(C)cc(-n2ncc3c2CCCC3NC(=O)c2cc(C)[nH]n2)c1 (stereo unspecified)	96.3% (inactive)
CC1(C)Cc2c(cnn2-c2ccc(F)cc2)C(NC(=O)c2cnccn2)C1 (stereo unspecified)	102% (inactive)
COc1cc2c(cc1OC)C(=O)N1[C@H]3c4cc(C)ccc4OC[C@@H]3[C@H](c3ccccc3)[C@]1(C)C(=O)N2	99.3% (inactive)
O=c1[nH]c(C2CCN(S(=O)(=O)c3ccccc3C(F)(F)F)CC2)nc2c1nnn2Cc1ccccc1	92.4% (inactive)
CCCCCCCCn1ccc(=N)cc1	102% (inactive)
COc1ccc2c(-c3ccc(OCCN4CCCCC4)cc3)c(-c3ccccc3OC)sc2c1	102% (inactive)
COc1ccc2nccc(/C=C/c3ccnc4ccc(OC)cc34)c2c1	126% (inactive)
CC(C)c1ccc(S(=O)(=O)Nc2ccc(O)c(Sc3ncn[nH]3)c2)cc1	151% (inactive)
CC(C)=C1C2CCC1C1C(=O)N(c3nc(-c4ccc(C(C)C)cc4)c(C)s3)C(=O)C21 (stereo unspecified)	111% (inactive)
O=C(c1ccc2c(c1)OCO2)N1CCC2(CC1)Oc1ccc(F)cc1C(=O)C21CC(c2ccc(Cl)cc2)=NO1 (stereo unspecified)	165% (inactive)
CCc1c(C)nc2cc(-c3cc(OC)cc(OC)c3)nn2c1N1CCN(CCN2CCOCC2)CC1	130% (inactive)
O=C(NCCC1=CCCCC1)C1CCC(CNc2nc(=S)[nH]c3ccccc23)CC1 (stereo unspecified)	108% (inactive)
